Counter-ions that a name gives are not always drawn.
Key:
[1] = target: NaV1.1 (Homo sapiens (Human), UniProt P35498); assay: Sodium Influx Assay (Flux), NaV1.1; format: cell-based; details: Trex HEK293 cells, ANG2 dye; arithmetic mean
[2] = target: NaV1.6 (Homo sapiens (Human), UniProt Q9UQD0); assay: Sodium Influx Assay (Flux), NaV1.6; details: read-out: Flux NaV1.6 IC50; Trex HEK293 cells, ANG2 dye; arithmetic mean
[3] = target: NaV1.5 (Homo sapiens (Human), UniProt Q14524); assay: Sodium Influx Assay (Flux), NaV1.5; details: read-out: Flux NaV1.5 IC50; Trex HEK293 cells, ANG2 dye; arithmetic mean
Sequence of NaV1.5 (Q14524 other isoform, or with tags, fused parts or gaps): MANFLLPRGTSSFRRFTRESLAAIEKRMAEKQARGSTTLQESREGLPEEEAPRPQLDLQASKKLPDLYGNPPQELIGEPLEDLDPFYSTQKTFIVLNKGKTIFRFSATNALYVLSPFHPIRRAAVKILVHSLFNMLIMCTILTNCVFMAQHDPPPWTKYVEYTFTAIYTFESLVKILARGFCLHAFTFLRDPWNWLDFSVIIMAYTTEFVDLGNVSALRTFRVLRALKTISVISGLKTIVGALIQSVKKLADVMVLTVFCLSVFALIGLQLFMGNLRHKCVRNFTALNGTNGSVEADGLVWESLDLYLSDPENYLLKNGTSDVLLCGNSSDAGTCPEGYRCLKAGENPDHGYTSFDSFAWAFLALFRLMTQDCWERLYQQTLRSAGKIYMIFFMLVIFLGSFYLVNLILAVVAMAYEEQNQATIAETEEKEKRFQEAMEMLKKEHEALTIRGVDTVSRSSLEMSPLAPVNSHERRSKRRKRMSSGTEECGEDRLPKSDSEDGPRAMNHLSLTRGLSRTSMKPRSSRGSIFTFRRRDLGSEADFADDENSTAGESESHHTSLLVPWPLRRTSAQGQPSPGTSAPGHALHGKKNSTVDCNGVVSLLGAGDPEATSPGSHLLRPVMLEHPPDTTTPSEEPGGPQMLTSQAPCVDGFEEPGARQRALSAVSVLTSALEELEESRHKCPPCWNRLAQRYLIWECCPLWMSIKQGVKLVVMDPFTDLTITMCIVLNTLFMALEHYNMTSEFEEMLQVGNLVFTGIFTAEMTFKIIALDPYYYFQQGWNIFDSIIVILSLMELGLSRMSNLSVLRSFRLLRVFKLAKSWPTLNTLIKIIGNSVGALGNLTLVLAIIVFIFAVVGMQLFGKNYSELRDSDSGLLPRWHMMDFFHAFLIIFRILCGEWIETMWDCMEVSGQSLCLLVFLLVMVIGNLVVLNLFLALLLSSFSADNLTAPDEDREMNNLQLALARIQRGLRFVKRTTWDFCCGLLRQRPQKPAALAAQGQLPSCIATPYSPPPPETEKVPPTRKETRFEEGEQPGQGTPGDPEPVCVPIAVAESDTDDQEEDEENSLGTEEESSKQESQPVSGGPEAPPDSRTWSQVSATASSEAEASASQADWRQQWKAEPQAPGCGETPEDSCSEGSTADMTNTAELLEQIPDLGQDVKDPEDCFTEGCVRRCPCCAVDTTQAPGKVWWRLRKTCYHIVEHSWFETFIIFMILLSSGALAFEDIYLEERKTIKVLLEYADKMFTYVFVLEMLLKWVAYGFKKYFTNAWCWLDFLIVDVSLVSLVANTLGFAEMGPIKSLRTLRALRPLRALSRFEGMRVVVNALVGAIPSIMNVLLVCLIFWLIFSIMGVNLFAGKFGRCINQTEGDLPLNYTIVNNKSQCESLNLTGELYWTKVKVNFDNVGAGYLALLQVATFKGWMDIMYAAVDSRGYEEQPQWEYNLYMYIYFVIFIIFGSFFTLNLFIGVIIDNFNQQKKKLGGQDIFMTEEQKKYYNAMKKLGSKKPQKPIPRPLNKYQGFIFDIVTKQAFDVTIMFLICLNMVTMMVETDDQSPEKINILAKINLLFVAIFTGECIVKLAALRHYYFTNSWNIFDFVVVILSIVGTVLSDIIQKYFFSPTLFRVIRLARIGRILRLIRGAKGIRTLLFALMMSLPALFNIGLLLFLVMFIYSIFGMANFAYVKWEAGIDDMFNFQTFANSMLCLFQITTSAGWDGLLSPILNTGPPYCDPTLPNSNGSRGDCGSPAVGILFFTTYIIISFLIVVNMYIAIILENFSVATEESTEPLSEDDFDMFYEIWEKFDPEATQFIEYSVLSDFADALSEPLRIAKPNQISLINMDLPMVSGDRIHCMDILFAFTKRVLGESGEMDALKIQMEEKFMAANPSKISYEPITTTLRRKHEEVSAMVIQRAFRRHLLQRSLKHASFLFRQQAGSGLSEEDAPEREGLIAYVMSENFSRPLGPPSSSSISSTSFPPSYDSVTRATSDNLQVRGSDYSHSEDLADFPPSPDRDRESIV

| IC50 [1] | IC50 [2] | SMILES | IC50 [3] |
| --- | --- | --- | --- |
| 6.02 µM | 0.613 µM | Cc1cc(S(=O)(=O)Nc2cscn2)c(F)cc1N(C)[C@H]1CCN(C2Cc3ccccc3C2)C1 [Example 149, (S)-4-((1-(2,3-dihydro-1H-inden-2-yl)pyrrolidin-3-yl)(methyl)amino)-2-fluoro-5-methyl-N-(thiazol-4-yl)benzenesulfonamide] | 9.18 µM |
| > 30 µM | 0.954 µM | Cc1cn(C)c(CN2CC[C@H](N(C)c3cc(F)c(S(=O)(=O)Nc4cscn4)cc3C)C2)n1 [Example 150, (S)-4-((1-((1,4-dimethyl-1H-imidazol-2-yl)methyl)pyrrolidin-3-yl)(methyl)amino)-2-fluoro-5-methyl-N-(thiazol-4-yl)benzenesulfonamide] | > 30 µM |
| > 30 µM | 0.41 µM | Cc1cc(S(=O)(=O)Nc2cscn2)c(F)cc1N(C)[C@H]1CCN(Cc2cc3n(n2)CCCC3)C1 [Example 151, (S)-2-fluoro-5-methyl-4-(methyl(1-((4,5,6,7-tetrahydropyrazolo[1,5-a]pyridin-2-yl)methyl)pyrrolidin-3-yl)amino)-N-(thiazol-4-yl)benzenesulfonamide] | > 30 µM |
| 7.21 µM | 1.7 µM | Cc1cc(S(=O)(=O)Nc2cscn2)c(F)cc1N(C)[C@H]1CCN(Cc2nc(C(F)(F)F)cs2)C1 [Example 152, (S)-2-fluoro-5-methyl-4-(methyl(1-((4-(trifluoromethyl)thiazol-2-yl)methyl)pyrrolidin-3-yl)amino)-N-(thiazol-4-yl)benzenesulfonamide] | 8.91 µM |
| > 30 µM | 0.185 µM | Cc1cc(S(=O)(=O)Nc2cscn2)c(F)cc1N(C)[C@H]1CCN(Cc2ccn(CC(F)F)n2)C1 [Example 153, (S)-4-((1-((1-(2,2-difluoroethyl)-1H-pyrazol-3-yl)methyl)pyrrolidin-3-yl)(methyl)amino)-2-fluoro-5-methyl-N-(thiazol-4-yl)benzenesulfonamide 2,2,2-trifluoroacetate] | > 30 µM |
| 16.6 µM | 5.57 µM | Cc1nc(CN2CC[C@H](N(C)c3cc(F)c(S(=O)(=O)Nc4cscn4)cc3C)C2)c(C(F)(F)F)o1 [Example 154, (S)-2-fluoro-5-methyl-4-(methyl(1-((2-methyl-5-(trifluoromethyl)oxazol-4-yl)methyl)pyrrolidin-3-yl)amino)-N-(thiazol-4-yl)benzenesulfonamide 2,2,2-trifluoroacetate] | 21.7 µM |
| 12.6 µM | 0.22 µM | Cc1cc(S(=O)(=O)Nc2cscn2)c(F)cc1N(C)[C@H]1CCN(Cc2ccccc2F)C1 [Example 155, (S)-2-fluoro-4-((1-(2-fluorobenzyl)pyrrolidin-3-yl)(methyl)amino)-5-methyl-N-(thiazol-4-yl)benzenesulfonamide] | 14.4 µM |
| > 30 µM | 0.178 µM | Cc1cc(S(=O)(=O)Nc2cscn2)c(F)cc1O[C@@]1(C)CCN(Cc2ccccc2)C1 [Example 159, (S)-4-((1-benzyl-3-methylpyrrolidin-3-yl)oxy)-2-fluoro-5-methyl-N-(thiazol-4-yl)benzenesulfonamide formate] | > 30 µM |
| 26.7 µM | 1.69 µM | CN(c1cc(F)c(S(=O)(=O)Nc2cscn2)cc1Cl)[C@H]1CCN(Cc2cccc(C(F)F)n2)C1 [Example 160, (S)-5-chloro-4-((1-((6-(difluoromethyl)pyridin-2-yl)methyl)pyrrolidin-3-yl)(methyl)amino)-2-fluoro-N-(thiazol-4-yl)benzenesulfonamide] | > 30 µM |
| 26 µM | 4.85 µM | CN(c1cc(F)c(S(=O)(=O)Nc2cscn2)cc1Cl)[C@H]1CCN(Cc2cccc(C(C)(C)O)c2)C1 [Example 161, (S)-5-chloro-2-fluoro-4-((1-(3-(2-hydroxypropan-2-yl)benzyl)pyrrolidin-3-yl)(methyl)amino)-N-(thiazol-4-yl)benzenesulfonamide formate] | > 30 µM |
| 6.88 µM | 6.13 µM | O=S(=O)(Nc1cscn1)c1cc(Cl)c(O[C@H]2CCN(Cc3cccc(C(F)F)c3)C[C@H]2F)cc1F [Example 162, 5-chloro-4-(((3R,4S)-1-(3-(difluoromethyl)benzyl)-3-fluoropiperidin-4-yl)oxy)-2-fluoro-N-(thiazol-4-yl)benzenesulfonamide] | 5.78 µM |
| > 30 µM | 2.8 µM | CN(c1cc(F)c(S(=O)(=O)Nc2cscn2)cc1Cl)[C@H]1CCN(Cc2nc(C(F)F)ccc2F)C1 [Example 163, (S)-5-chloro-4-((1-((6-(difluoromethyl)-3-fluoropyridin-2-yl)methyl)pyrrolidin-3-yl)(methyl)amino)-2-fluoro-N-(thiazol-4-yl)benzenesulfonamide formate] | > 30 µM |
| 6.03 µM | 4.45 µM | CN(c1cc(F)c(S(=O)(=O)Nc2cscn2)cc1Cl)[C@H]1CCN(Cc2ccc(C(F)(F)F)o2)C1 [Example 164, (S)-5-chloro-2-fluoro-4-(methyl(1-((5-(trifluoromethyl)furan-2-yl)methyl)pyrrolidin-3-yl)amino)-N-(thiazol-4-yl)benzene-sulfonamide 2,2,2-trifluoroacetate] | 12.9 µM |
| 7.79 µM | 3.67 µM | CN(c1cc(F)c(S(=O)(=O)Nc2cscn2)cc1Cl)[C@H]1CCN(C2Cc3ccccc3C2)C1 [Example 166, (S)-5-chloro-4-((1-(2,3-dihydro-1H-inden-2-yl)pyrrolidin-3-yl)(methyl)amino)-2-fluoro-N-(thiazol-4-yl)benzene-sulfonamide formate] | 10.1 µM |
| 6.44 µM | 1.69 µM | Cc1ccc(CN2CC[C@H](N(C)c3cc(F)c(S(=O)(=O)Nc4cscn4)cc3Cl)C2)c(F)c1 [Example 167, (S)-5-chloro-2-fluoro-4-((1-(2-fluoro-4-methylbenzyl)pyrrolidin-3-yl)(methyl)amino)-N-(thiazol-4-yl)benzene-sulfonamide] | 8.85 µM |
| 4.17 µM | 2.02 µM | CN(c1cc(F)c(S(=O)(=O)Nc2cscn2)cc1Cl)[C@H]1CCN(Cc2cccc(OC(F)F)c2)C1 [Example 168, (S)-5-chloro-4-((1-(3-(difluoromethoxy)benzyl)-pyrrolidin-3-yl)(methyl)amino)-2-fluoro-N-(thiazol-4-yl)benzene-sulfonamide formate] | 5.89 µM |
| 4.62 µM | 0.821 µM | CN(c1cc(F)c(S(=O)(=O)Nc2cscn2)cc1Cl)[C@H]1CCN(Cc2c(F)cccc2Cl)C1 [Example 169, (S)-5-chloro-4-((1-(2-chloro-6-fluorobenzyl)pyrrolidin-3-yl)(methyl)amino)-2-fluoro-N-(thiazol-4-yl)benzene-sulfonamide 2,2,2-trifluoroacetate] | 5.27 µM |
| 2.35 µM | 1.86 µM | CCCc1ccc(CN2CC[C@H](N(C)c3cc(F)c(S(=O)(=O)Nc4cscn4)cc3Cl)C2)cc1 [Example 171, (S)-5-chloro-2-fluoro-4-(methyl(1-(4-propylbenzyl)-pyrrolidin-3-yl)amino)-N-(thiazol-4-yl)benzene-sulfonamide] | 4.96 µM |

— US10246453B2, “Benzenesulfonamide compounds and their use as therapeutic agents” (Xenon Pharmaceuticals Inc., priority 2016, dated 2019)
